From ChEMBL document CHEMBL5325477, “Biological Function of Pin1 in Vivo and Its Inhibitors for Preclinical Study: Early Development, Current Strategies, and Future Directions” (J Med Chem, 2023)
One block for each molecule: values may come before it. *1 amine or outer side, *2 acyl side, *3 side chain or, on linkers, in order; H or OH if unused. Where a SMILES comes first, the peptide text is derived from it. [ ]: non-standard residue; d: D form. The star is where a group is joined. Biotin = O=C1N[C@H]2[C@H](CS[C@H]2CCCCC(=O)*)N1; Phe(2-tBu) = CC(C)(C)c1ccccc1C[C@H](N)C(=O)O; X2 = CC(OP(=O)(O)O)[C@H](N[*:1])C(=O)[*:2]; X3 = O=C([C@H](Cc1cc2ccccc2s1)N[*:1])[*:2]; Bip = N[C@@H](Cc1ccc(-c2ccccc2)cc1)C(=O)O; 1Nal = N[C@@H](Cc1cccc2ccccc12)C(=O)O; 2Nal = N[C@@H](Cc1ccc2ccccc2c1)C(=O)O; Bta = N[C@@H](Cc1csc2ccccc12)C(=O)O; 2Thi = N[C@@H](Cc1cccs1)C(=O)O; Cha = N[C@@H](CC1CCCCC1)C(=O)O; Pip = O=C(O)[C@@H]1CCCCN1; Abu = CC[C@H](N)C(=O)O

Legend:
[1] = target: T1, Peptidyl-prolyl cis-trans isomerase NIMA-interacting 1 (Homo sapiens, UniProt Q13526); test: Inhibition of Gst-tagged human Pin1 by Western blot analysis
[2] = target: T1, Peptidyl-prolyl cis-trans isomerase NIMA-interacting 1; test: Inhibition of Gst-tagged human Pin1 assessed as inhibition constant by Western blot analysis
[3] = target: T1, Peptidyl-prolyl cis-trans isomerase NIMA-interacting 1; test: Inhibition of human Pin1 assessed as inhibition constant
[4] = target: T1, Peptidyl-prolyl cis-trans isomerase NIMA-interacting 1; test: Inhibition of human Pin1
[5] = target: T1, Peptidyl-prolyl cis-trans isomerase NIMA-interacting 1; test: Inhibition of Pin1 (unknown origin)
MDA-MB-231 [6] = test: Anticancer activity against human MDA-MB-231 cells assessed as cell growth inhibition measured after 48 hrs by cell count reagent SF based assay; type: functional; conditions: MDA-MB-231, 48 h
[7] = target: T1, Peptidyl-prolyl cis-trans isomerase NIMA-interacting 1; test: Inhibition of Pin1 (unknown origin) using Suc-Ala-Glu-Pro-Phe-pNA as substrate by spectrofluorometry assay
MEF = test: Anticancer activity against mouse MEF cells assessed as cell growth inhibition measured after 48 hrs by MTT assay; type: functional, cell-based
MDA-MB-231 [8] = test: Anticancer activity against human MDA-MB-231 cells assessed as cell growth inhibition measured after 24 hrs by tryphan blue staining based assay; type: functional; conditions: MDA-MB-231, 24 h
[9] = target: T1, Peptidyl-prolyl cis-trans isomerase NIMA-interacting 1; test: Inhibition of recombinant human Pin1 assessed as inactivation constant measured upto 180 mins

T1 sequence (Q13526 whole entry): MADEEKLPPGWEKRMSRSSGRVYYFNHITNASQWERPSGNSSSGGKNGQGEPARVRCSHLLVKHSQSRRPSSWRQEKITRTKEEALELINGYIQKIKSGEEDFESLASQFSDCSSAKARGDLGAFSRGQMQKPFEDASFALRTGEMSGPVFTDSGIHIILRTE

SMILES: CC(=O)N[C@@H](CCCCNC(=O)CCCC[C@@H]1SC[C@@H]2NC(=O)N[C@@H]21)C(=O)N[C@@H](C)C(=O)N[C@@H](C)C(=O)N[C@@H](Cc1cc2ccccc2s1)C(=O)N[C@H](C(=O)N1CCC[C@H]1C(=O)N[C@@H](CC1CCCCC1)C(=O)N[C@@H](CCC(N)=O)C(N)=O)C(C)OP(=O)(O)O (some centres undefined) (Ac-K(Biotin)AA[X3][X2]P[Cha]Q-NH2)
IC50 [1]: 50 µM

SMILES: CC(=O)N[C@@H](CCCCNC(=O)CCCC[C@@H]1SC[C@@H]2NC(=O)N[C@@H]21)C(=O)N[C@@H](C)C(=O)N[C@@H](C)C(=O)N[C@@H](Cc1csc2ccccc12)C(=O)N[C@H](C(=O)N1CCCC[C@H]1C(=O)N[C@@H](Cc1ccc2ccccc2c1)C(=O)N[C@@H](CCC(N)=O)C(N)=O)C(C)OP(=O)(O)O (some centres undefined) (Ac-K(Biotin)AA[Bta][X2][Pip][2Nal]Q-NH2)
Ki [2]: 0.183 µM

SMILES: COc1ccc(F)cc1-c1ccc(O)c(C(=O)C2CCc3ccccc32)c1 (centres undefined)
Ki [3]: 1.7 µM

SMILES: O=C(c1cc(-c2cc(F)ccc2O)ccc1O)C1CCc2ccccc21 (centres undefined)
Ki [3]: 3.1 µM

SMILES: O=C(c1cc(F)ccc1O)C1CCc2ccccc21 (centres undefined)
Ki [3]: 15 µM

SMILES: CCOC(=O)C([Se]c1ccccc1)([Se]c1ccccc1)C(=O)OCC
IC50 (MDA-MB-231 [6]): 11 µM | IC50 [7]: 0.44 µM

SMILES: CC(=O)N[C@@H](CCCCNC(=O)CCCC[C@@H]1SC[C@@H]2NC(=O)N[C@@H]21)C(=O)N[C@@H](C)C(=O)N[C@@H](C)C(=O)N[C@@H](Cc1cccs1)C(=O)N[C@H](C(=O)N1CCC[C@H]1C(=O)N[C@@H](Cc1ccc(-c2ccccc2)cc1)C(=O)N[C@@H](CCC(N)=O)C(N)=O)C(C)OP(=O)(O)O (some centres undefined) (Ac-K(Biotin)AA[2Thi][X2]P[Bip]Q-NH2)
IC50 [1]: 22 µM

SMILES: COc1ccccc1C(=O)C1CCc2ccccc21 (centres undefined)
Ki [3]: 6.2 µM

SMILES: COc1ccc(F)cc1-c1cc(N)c(O)c(C(=O)C2CCc3ccccc32)c1 (centres undefined)
Ki [3]: 4.9 µM

SMILES: CCOC(=O)CN1C(=O)c2ccc3c4c(ccc(c24)C1=O)C(=O)N(CC(=O)OCC)C3=O
IC50 (MEF): 1 µM

SMILES: O=C(c1cc(-c2cc(F)cc([N+](=O)[O-])c2O)ccc1O)C1CCc2ccccc21 (centres undefined)
Ki [3]: 0.5 µM

SMILES: CCOC(=O)C([Se]c1ccccc1)C(=O)OCC
IC50 (MDA-MB-231 [6]): 21 µM | IC50 [7]: 0.78 µM

Now from value to molecule:

IC50 [4]: 12 µM
SMILES: CC(=O)N[C@H](CN1CCC[C@H]1C(=O)NCCc1c[nH]c2ccccc12)OP(=O)(O)O

Ki [3]: 19 µM
SMILES: COc1ccc(F)cc1C(=O)C1(C)CCc2ccccc21 (racemic)

IC50 [5]: 0.22 µM
SMILES: C=C(N)NCCC[C@H]1NC(=O)[C@H](CCC(N)=O)NC(=O)[C@H](CCCNC(=N)N)NC(=O)[C@H](Cc2ccc3ccccc3c2)NC(=O)[C@@H]2CCCCN2C(=O)[C@@H]([C@H](C)OP(=O)(O)O)NC(=O)[C@@H](CCCNC(=N)N)NC1=O

IC50 [1]: 30 µM
SMILES: CC(=O)N[C@@H](CCCCNC(=O)CCCC[C@@H]1SC[C@@H]2NC(=O)N[C@@H]21)C(=O)N[C@@H](C)C(=O)N[C@@H](C)C(=O)N[C@@H](Cc1ccccc1C(C)(C)C)C(=O)N[C@H](C(=O)N1CCC[C@H]1C(=O)N[C@@H](Cc1ccc2ccccc2c1)C(=O)N[C@@H](CCC(N)=O)C(N)=O)C(C)OP(=O)(O)O (some centres undefined) (Ac-K(Biotin)AA[Phe(2-tBu)][X2]P[2Nal]Q-NH2)

Ki [3]: 1.4 µM
SMILES: COc1ccc(F)cc1-c1cc(NC(=O)C[C@@H]2SC[C@H]3NC(=O)N[C@@H]23)c(O)c(C(=O)C2CCc3ccccc32)c1 (some centres undefined)

Ki [3]: 5.1 µM
SMILES: O=C(c1ccccc1O)C1CCc2ccccc21 (centres undefined)

IC50 [1]: 18 µM
SMILES: CC(=O)N[C@@H](CCCCNC(=O)CCCC[C@@H]1SC[C@@H]2NC(=O)N[C@@H]21)C(=O)N[C@@H](C)C(=O)N[C@@H](C)C(=O)N[C@@H](Cc1ccc(-c2ccccc2)cc1)C(=O)N[C@H](C(=O)N1CCC[C@H]1C(=O)N[C@@H](Cc1ccc2ccccc2c1)C(=O)N[C@@H](CCC(N)=O)C(N)=O)C(C)OP(=O)(O)O (some centres undefined) (Ac-K(Biotin)AA[Bip][X2]P[2Nal]Q-NH2)

Ki [2]: 0.0183 µM
SMILES: CC[C@H](NC(C)=O)C(=O)N[C@H](C(=O)N1CCCC[C@H]1C(=O)N[C@@H](Cc1cccc2ccccc12)C(=O)N[C@@H](CCC(N)=O)C(N)=O)C(C)OP(=O)(O)O (some centres undefined) (Ac-[Abu][X2][Pip][1Nal]Q-NH2)

IC50 (MDA-MB-231 [8]): 1.2 µM | Kinact [9]: 4.66 10^-1/min
SMILES: CC(C)(C)c1ccc(S(=O)(=O)/N=C2\C=C(SCC(=O)O)C(=O)c3ccccc32)cc1
